Measurements taken from US10251394B2, “Molecules having pesticidal utility, and intermediates, compositions, and processes, related thereto” (Dow AgroSciences LLC, priority 2016, dated 2019).

What was measured:
[1] = test system: Cabbage Looper (Trichoplusia ni); test: Bioassay on Cabbage Looper (CL), 128-well diet tray assay; format: in vivo; conditions: for pest or weed control at 50 µg/cm2: Cabbage Looper, Table ABC, read-out: CL rating
Outline: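 Second-instar larvae, one to five per well, placed on artificial diet surface-treated with 50 μg/cm^2 compound in acetone-water, eight wells per compound. Held 5-7 days at 25° C, 14:10 light-dark; percent mortality per well averaged across wells.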

[2] = test system: Beet Armyworm (Spodoptera exigua); test: Bioassay on Beet Armyworm (BAW), 128-well diet tray assay; format: in vivo; conditions: for pest or weed control at 50 µg/cm2: Beet Armyworm, Table ABC, read-out: BAW rating
Outline: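 Second-instar larvae (one to five per well) placed on artificial diet surface-treated with 50 μg/cm^2 test molecule in 90:10 acetone-water, dried, eight wells per molecule. Held at 25° C, 14:10 light-dark, five to seven days; percent mortality recorded per well and averaged across the eight wells.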

SMILES	pest or weed control at 50 µg/cm2 [1] [%]	pest or weed control at 50 µg/cm2 [2] [%]	further results
CC#Cc1cc(C(/C=C(\F)c2ccc(C(=O)N[C@H](C)C(=O)NCC(F)(F)F)c(C(F)(F)F)c2)C(F)(F)F)cc(Cl)c1Cl (stereo partly drawn) [F190, 4-((Z)-3-(3,4-Dichloro-5-(prop-1-yn-1-yl)phenyl)-1,4,4,4-tetrafluorobut-1-en-1-yl)-N—((R)-1-oxo-1-((2,2,2-trifluoroethyl)amino)propan-2-yl)-2-(trifluoromethyl)benzamide]	50 to 100	50 to 100	–
C[C@@H](NC(=O)c1ccc(/C(F)=C/C(c2cc(Cl)c(Cl)c(Cl)c2)C(C)(F)F)cc1Cl)C(=O)NCC(F)(F)F (stereo partly drawn) [PF60, 2-Chloro-N—((R)-1-oxo-1-((2,2,2-trifluoroethyl)amino)propan-2-yl)-4-((Z)-1,4,4-trifluoro-3-(3,4,5-trichlorophenyl)pent-1-en-1-yl)benzamide]	50 to 100	50 to 100	–
O=C(N[C@@H]1CCN(CC(F)(F)F)C1=O)c1ccc(/C(F)=C/C(c2cc(Cl)c(Cl)c(Cl)c2)C(F)(F)F)cc1C(F)(F)F (stereo partly drawn) [F171, N—((R)-2-Oxo-1-(2,2,2-trifluoroethyl)pyrrolidin-3-yl)-4-((Z)-1,4,4,4-tetrafluoro-3-(3,4,5-trichlorophenyl)but-1-en-1-yl)-2-(trifluoromethyl)benzamide]	50 to 100	50 to 100	–
C[C@@H](NC(=O)c1ccc(/C(F)=C/C(c2cc(Cl)cc(C(F)(F)F)c2)C(F)(F)F)cc1C(F)(F)F)C(=O)NCC(F)(F)F (stereo partly drawn) [PF42, 4-((Z)-3-(3-Chloro-5-(trifluoromethyl)phenyl)-1,4,4,4-tetrafluorobut-1-en-1-yl)-N-((1R)-1-oxo-1-((2,2,2-trifluoroethyl)amino)propan-2-yl)-2-(trifluoromethyl)benzamide]	50 to 100	50 to 100	–
C=Cc1c(Cl)cc(C(/C=C(\F)c2ccc(C(=O)NC3(C(=O)N(C)CC(F)(F)F)CC3)c(C(F)(F)F)c2)C(F)(F)F)cc1Cl (stereo not drawn) [F111, (Z)-4-(3-(3,5-Dichloro-4-vinylphenyl)-1,4,4,4-tetrafluorobut-1-en-1-yl)-N-(1-(methyl(2,2,2-trifluoroethyl)carbamoyl)cyclopropyl)-2-(trifluoromethyl)benzamide]	50 to 100	50 to 100	–
C[C@@H](NC(=O)c1ccc(/C(F)=C/C(c2ccc(Cl)c(OC(F)(F)F)c2)C(F)(F)F)cc1C(F)(F)F)C(=O)NCC(F)(F)F (stereo partly drawn) [F183, 4-((Z)-3-(4-Chloro-3-(trifluoromethoxy)phenyl)-1,4,4,4-tetrafluorobut-1-en-1-yl)-N—((R)-1-oxo-1-((2,2,2-trifluoroethyl)amino)propan-2-yl)-2-(trifluoromethyl)benzamide]	50 to 100	50 to 100	–
C[C@@H](NC(=O)c1ccc(/C(F)=C/C(c2ccc(Br)c(Cl)c2)C(F)(F)F)cc1C(F)(F)F)C(=O)N(C)CC(F)(F)F (stereo partly drawn) [PF26, 4-((Z)-3-(4-Bromo-3-chlorophenyl)-1,4,4,4-tetrafluorobut-1-en-1-yl]-N—((R)-1-(methyl(2,2,2-trifluoroethyl)amino)-1-oxopropan-2-yl)-2-(trifluoromethyl)benzamide]	50 to 100	50 to 100	–
CC(F)(F)C(/C=C(\F)c1ccc(C(=O)NCC(=O)NCC(F)(F)F)c(C(F)(F)F)c1)c1ccc(Cl)c(Cl)c1 (stereo not drawn) [F129, (Z)-4-(3-(3,4-Dichlorophenyl)-1,4,4-trifluoropent-1-en-1-yl)-N-(2-oxo-2-((2,2,2-trifluoroethyl)amino)ethyl)-2-(trifluoromethyl)benzamide]	50 to 100	50 to 100	–
O=C(NC1(C(=O)NCC2CCC2)CC1)c1ccc(/C(F)=C/C(c2cc(Cl)c(Cl)c(Cl)c2)C(F)(F)F)cc1C(F)(F)F (stereo not drawn) [F93, (Z)—N-(1-((Cyclobutylmethyl)carbamoyl)cyclopropyl)-4-(1,4,4,4-tetrafluoro-3-(3,4,5-trichlorophenyl)but-1-en-1-yl)-2-(trifluoromethyl)benzamide]	50 to 100	50 to 100	–
CC(F)(F)C(/C=C(\F)c1ccc(C(=O)NC2(C(=O)NCC(F)(F)F)CC2)c(Cl)c1)c1cc(Cl)c(Cl)c(Cl)c1 (stereo not drawn) [PF62, (Z)-2-Chloro-4-(1,4,4-trifluoro-3-(3,4,5-trichlorophenyl)pent-1-en-1-yl)-N-(1-((2,2,2-trifluoroethyl)carbamoyl)cyclopropyl)benzamide]	50 to 100	50 to 100	–
C[C@@H](NC(=O)c1ccc(/C(F)=C/C(c2cc(Cl)c(Cl)c(Cl)c2)C(F)(F)F)cc1Cl)C(=O)NCC(F)(F)F (stereo partly drawn) [F23, 2-Chloro-N—((R)-1-oxo-1-((2,2,2-trifluoroethyl)amino)propan-2-yl)-4-((Z)-1,4,4,4-tetrafluoro-3-(3,4,5-trichlorophenyl)but-1-en-1-yl)benzamide]	50 to 100	50 to 100	mortality at 0.05 µg/cm2 ([1]; 168 h, 0.05 μg/cm^2 on artificial diet, second instar larvae, five to seven days, read-out: CL Percent control (or mortality)): 100%; mortality at 0.5 µg/cm2 ([1]; 168 h, 0.5 μg/cm^2 on artificial diet, second instar larvae, five to seven days, read-out: CL Percent control (or mortality)): 100%; mortality at 5 µg/cm2 ([1]; 168 h, 5 μg/cm^2 on artificial diet, second instar larvae, five to seven days, read-out: CL Percent control (or mortality)): 100%; mortality at 0.05 µg/cm2 ([2]; 168 h, 0.05 μg/cm^2 on artificial diet, second instar larvae, five to seven days, read-out: BAW Percent control (or mortality)): 81%; mortality at 0.5 µg/cm2 ([2]; 168 h, 0.5 μg/cm^2 on artificial diet, second instar larvae, five to seven days, read-out: BAW Percent control (or mortality)): 100%; mortality at 5 µg/cm2 ([2]; 168 h, 5 μg/cm^2 on artificial diet, second instar larvae, five to seven days, read-out: BAW Percent control (or mortality)): 100%
O=C(NC1(C(=O)NCC(F)(F)F)CC1)c1ccc(/C(F)=C/C(c2cc(Cl)cc(C(F)(F)F)c2)C(F)(F)F)cc1C(F)(F)F (stereo not drawn) [PF44]	50 to 100	50 to 100	–
CC(F)(F)C(/C=C(\F)c1ccc(C(=O)NC2(C(=O)NCC(F)(F)F)CC2)c(C(F)(F)F)c1)c1ccc(Cl)c(Cl)c1 (stereo not drawn) [F128, (Z)-4-(3-(3,4-Dichlorophenyl)-1,4,4-trifluoropent-1-en-1-yl)-N-(1-((2,2,2-trifluoroethyl)carbamoyl)cyclopropyl)-2-(trifluoromethyl)benzamide]	50 to 100	50 to 100	–
C[C@@H](NC(=O)c1ccc(/C(F)=C/C(c2cc(Cl)c(Cl)c(Cl)c2)C(C)(F)F)cc1C(F)(F)F)C(=O)NCC(F)(F)F (stereo partly drawn) [F29, N—((R)-1-Oxo-1-((2,2,2-trifluoroethyl)amino)propan-2-yl)-4-((Z)-1,4,4-trifluoro-3-(3,4,5-trichlorophenyl)pent-1-en-1-yl)-2-(trifluoromethyl)benzamide]	50 to 100	50 to 100	–
CC[C@@H](NC(=O)c1ccc(/C(F)=C/C(c2cc(Cl)c(Cl)c(Cl)c2)C(F)(F)F)cc1Cl)C(=O)NCC(F)(F)F (stereo partly drawn) [F100, 2-Chloro-N—((R)-1-oxo-1-((2,2,2-trifluoroethyl)amino)butan-2-yl)-4-((Z)-1,4,4,4-tetrafluoro-3-(3,4,5-trichlorophenyl)but-1-en-1-yl)benzamide]	50 to 100	50 to 100	–
C[C@@H](NC(=O)c1ccc(/C(F)=C/C(c2cc(F)c(F)c(C#CC(C)(C)C)c2)C(F)(F)F)cc1C(F)(F)F)C(=O)NCC(F)(F)F (stereo partly drawn) [F216, 4-((Z)-3-(3-(3,3-Dimethylbut-1-yn-1-yl)-4,5-difluorophenyl)-1,4,4,4-tetrafluorobut-1-en-1-yl)-N—((R)-1-oxo-1-((2,2,2-trifluoroethyl)amino)propan-2-yl)-2-(trifluoromethyl)benzamide]	50 to 100	50 to 100	–
CC(F)(F)C(/C=C(\F)c1ccc(C(=O)NC2(C(=O)NCC(F)(F)F)CC2)c(C(F)(F)F)c1)c1cc(Cl)c(Cl)c(Cl)c1 (stereo not drawn) [F58, (Z)-4-(1,4,4-Trifluoro-3-(3,4,5-trichlorophenyl)pent-1-en-1-yl)-N-(1-((2,2,2-trifluoroethyl)carbamoyl)cyclopropyl)-2-(trifluoromethyl)benzamide]	50 to 100	50 to 100	–
C[C@@H](NC(=O)c1ccc(/C(F)=C/C(c2cc(F)c(F)c(Cl)c2)C(F)(F)F)cc1C(F)(F)F)C(=O)NCC(F)(F)F (stereo partly drawn) [F154, 4-((Z)-3-(3-Chloro-4,5-difluorophenyl)-1,4,4,4-tetrafluorobut-1-en-1-yl)-N—((R)-1-oxo-1-((2,2,2-trifluoroethyl)amino)propan-2-yl)-2-(trifluoromethyl)benzamide]	50 to 100	50 to 100	–
C[C@@H](NC(=O)c1ccc(/C(F)=C/C(c2cc(Cl)c(Cl)c(Cl)c2)C(F)(F)F)cc1C(F)(F)F)C(=O)N(O)CC(F)(F)F (stereo partly drawn) [F169, N—((R)-1-(Hydroxy(2,2,2-trifluoroethyl)amino)-1-oxopropan-2-yl)-4-((Z)-1,4,4,4-tetrafluoro-3-(3,4,5-trichlorophenyl)but-1-en-1-yl)-2-(trifluoromethyl)benzamide]	50 to 100	50 to 100	–
C[C@@H](NC(=O)c1ccc(/C(F)=C/C(c2cc(Cl)cc(OC(F)(F)F)c2)C(F)(F)F)cc1C(F)(F)F)C(=O)NCC(F)(F)F (stereo partly drawn) [F181, 4-((Z)-3-(3-Chloro-5-(trifluoromethoxy)phenyl)-1,4,4,4-tetrafluorobut-1-en-1-yl)-N—((R)-1-oxo-1-((2,2,2-trifluoroethyl)amino)propan-2-yl)-2-(trifluoromethyl)benzamide]	50 to 100	50 to 100	–
CN(CC(F)(F)F)C(=O)C1(NC(=O)c2ccc(/C(F)=C/C(c3cc(Cl)c(Cl)c(Cl)c3)C(F)(F)F)cc2C(F)(F)F)CC1 (stereo not drawn) [F96, (Z)—N-(1-(Methyl(2,2,2-trifluoroethyl)carbamoyl)cyclopropyl)-4-(1,4,4,4-tetrafluoro-3-(3,4,5-trichlorophenyl)but-1-en-1-yl)-2-(trifluoromethyl)benzamide]	50 to 100	50 to 100	–
